Measured values from PubChem BioAssay (NCI).
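Where inhibition never reached the appropriate level, the endpoint shown equals the highest concentration tested. Otherwise, values were interpolated linearly from a five-concentration, 48-hour dose response in 96-well plates. TGI: concentration producing complete growth inhibition.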

Assays:
Assay in all cases: inhibition of tumour cell growth, NCI panel, 48 h
[1] = test system: 786-0 renal
[2] = test system: A498 renal
[3] = test system: A549 NSCLC
[4] = test system: ACHN renal
[5] = test system: BT-549 breast
[6] = test system: CAKI-1 renal
[7] = test system: CCRF-CEM leukemia
[8] = test system: COLO 205 colon
[9] = test system: DU-145 prostate
[10] = test system: EKVX NSCLC
[11] = test system: HCC-2998 colon
[12] = test system: HCT-116 colon
[13] = test system: HCT-15 colon
[14] = test system: HL-60(TB) leukemia
[15] = test system: HOP-62 NSCLC
[16] = test system: HOP-92 NSCLC
[17] = test system: HT29 colon
[18] = test system: IGROV1 ovarian
[19] = test system: K-562 leukemia
[20] = test system: KM12 colon
[21] = test system: LOX IMVI melanoma
[22] = test system: M14 melanoma
[23] = test system: MCF7 breast
[24] = test system: MDA-MB-231 breast
[25] = test system: MDA-MB-435
[26] = test system: MDA-N
[27] = test system: MOLT-4 leukemia
[28] = test system: NCI-H226 lung
[29] = test system: NCI-H23 lung
[30] = test system: NCI-H522 lung
[31] = test system: NCI/ADR-RES ovarian
[32] = test system: OVCAR-3 ovarian
[33] = test system: OVCAR-4 ovarian
[34] = test system: OVCAR-5 ovarian
[35] = test system: OVCAR-8 ovarian
[36] = test system: PC-3 prostate
[37] = test system: RPMI-8226 leukemia
[38] = test system: SF-268 CNS
[39] = test system: SF-295 CNS
[40] = test system: SF-539 CNS
[41] = test system: SK-MEL-2 melanoma
[42] = test system: SK-MEL-28 melanoma
[43] = test system: SK-MEL-5 melanoma
[44] = test system: SK-OV-3 ovarian
[45] = test system: SN12C renal
[46] = test system: SNB-19 CNS
[47] = test system: SR leukemia
[48] = test system: SW-620 colon
[49] = test system: T-47D breast
[50] = test system: TK-10 renal
[51] = test system: U251 CNS
[52] = test system: UACC-257 melanoma
[53] = test system: UACC-62 melanoma
[54] = test system: UO-31 renal
[55] = test system: HS 578T breast
[56] = test system: MALME-3M melanoma
[57] = test system: NCI-H460 lung
[58] = test system: RXF 393 renal
[59] = test system: SNB-75 CNS

COC(=O)c1ccc(NC(=O)c2cc3c(cc2Br)OCO3)o1
TGI [1]: > 100 µM | TGI [2]: > 100 µM | TGI [3]: > 100 µM | TGI [4]: > 100 µM | TGI [5]: > 100 µM | TGI [6]: > 100 µM | TGI [7]: > 100 µM | TGI [8]: > 100 µM | TGI [9]: > 100 µM | TGI [10]: > 100 µM | TGI [11]: > 100 µM | TGI [12]: > 100 µM | TGI [13]: > 100 µM | TGI [14]: > 100 µM | TGI [15]: > 100 µM | TGI [16]: > 100 µM | TGI [17]: > 100 µM | TGI [18]: > 100 µM | TGI [19]: > 100 µM | TGI [20]: > 100 µM | TGI [21]: > 100 µM | TGI [22]: > 100 µM | TGI [23]: > 100 µM | TGI [24]: > 100 µM | TGI [25]: > 100 µM | TGI [26]: > 100 µM | TGI [27]: > 100 µM | TGI [28]: > 100 µM | TGI [29]: > 100 µM | TGI [30]: > 100 µM | TGI [31]: > 100 µM | TGI [32]: > 100 µM | TGI [33]: > 100 µM | TGI [34]: > 100 µM | TGI [35]: > 100 µM | TGI [36]: > 100 µM | TGI [37]: > 100 µM | TGI [38]: 69.8 µM | TGI [39]: > 100 µM | TGI [40]: > 100 µM | TGI [41]: > 100 µM | TGI [42]: > 100 µM | TGI [43]: > 100 µM | TGI [44]: > 100 µM | TGI [45]: > 100 µM | TGI [46]: > 100 µM | TGI [47]: > 100 µM | TGI [48]: > 100 µM | TGI [49]: > 100 µM | TGI [50]: > 100 µM | TGI [51]: > 100 µM | TGI [52]: > 100 µM | TGI [53]: > 100 µM | TGI [54]: > 100 µM

CN(C)CCCNC(=O)N/N=C\c1cccc2ccccc12
TGI [2]: > 10 µM | TGI [3]: > 10 µM | TGI [4]: > 10 µM | TGI [7]: > 10 µM | TGI [8]: > 10 µM | TGI [9]: > 10 µM | TGI [10]: > 10 µM | TGI [11]: > 10 µM | TGI [12]: > 10 µM | TGI [13]: > 10 µM | TGI [14]: > 10 µM | TGI [15]: > 10 µM | TGI [16]: > 10 µM | TGI [55]: > 10 µM | TGI [17]: > 10 µM | TGI [18]: > 10 µM | TGI [19]: > 10 µM | TGI [20]: > 10 µM | TGI [21]: > 10 µM | TGI [22]: > 10 µM | TGI [56]: > 10 µM | TGI [23]: > 10 µM | TGI [24]: > 10 µM | TGI [26]: > 10 µM | TGI [27]: > 10 µM | TGI [57]: > 10 µM | TGI [30]: > 10 µM | TGI [31]: > 10 µM | TGI [33]: > 10 µM | TGI [34]: > 10 µM | TGI [35]: > 10 µM | TGI [36]: > 10 µM | TGI [37]: > 10 µM | TGI [58]: > 10 µM | TGI [38]: > 10 µM | TGI [39]: > 10 µM | TGI [40]: > 10 µM | TGI [42]: > 10 µM | TGI [43]: > 10 µM | TGI [44]: > 10 µM | TGI [45]: > 10 µM | TGI [59]: > 10 µM | TGI [47]: > 10 µM | TGI [48]: > 10 µM | TGI [49]: > 10 µM | TGI [50]: > 10 µM | TGI [53]: > 10 µM | TGI [54]: > 10 µM

C=C=C(C)C(=O)N(C(C)C)C(C)C
TGI [1]: > 100 µM | TGI [2]: > 100 µM | TGI [3]: > 100 µM | TGI [4]: > 100 µM | TGI [5]: > 100 µM | TGI [7]: > 100 µM | TGI [8]: > 100 µM | TGI [9]: > 100 µM | TGI [10]: > 100 µM | TGI [11]: > 100 µM | TGI [12]: > 100 µM | TGI [13]: > 100 µM | TGI [14]: > 100 µM | TGI [15]: > 100 µM | TGI [16]: > 100 µM | TGI [17]: > 100 µM | TGI [18]: > 100 µM | TGI [19]: > 100 µM | TGI [21]: > 100 µM | TGI [22]: > 100 µM | TGI [56]: > 100 µM | TGI [23]: > 100 µM | TGI [24]: > 100 µM | TGI [25]: > 100 µM | TGI [26]: > 100 µM | TGI [27]: > 100 µM | TGI [28]: > 100 µM | TGI [29]: > 100 µM | TGI [57]: > 100 µM | TGI [31]: > 100 µM | TGI [32]: > 100 µM | TGI [33]: > 100 µM | TGI [34]: > 100 µM | TGI [35]: > 100 µM | TGI [36]: > 100 µM | TGI [37]: > 100 µM | TGI [38]: > 100 µM | TGI [39]: > 100 µM | TGI [42]: > 100 µM | TGI [43]: > 100 µM | TGI [44]: > 100 µM | TGI [45]: > 100 µM | TGI [46]: > 100 µM | TGI [59]: > 100 µM | TGI [47]: > 100 µM | TGI [48]: > 100 µM | TGI [49]: > 100 µM | TGI [50]: > 100 µM | TGI [51]: > 100 µM | TGI [52]: > 100 µM | TGI [53]: > 100 µM | TGI [54]: > 100 µM
